Measurements reported in US20250052985A1, “SYSTEM AND METHOD FOR QUANTITATIVE PHASE IMAGING FOR MULTI-PARAMETRIC SCREENING OF TUMOR THERAPY RESPONSE” (UNIVERSITY OF UTAH RESEARCH FOUNDATION, priority 2023, published 2025).
Where “and” joins values, the source holds several entries; their conditions need not be identical. Identical values can stand only once. Like-named read-outs stand apart in the source and are kept apart here.

What was measured:
[1] = test system: MCF-7 cells; experiment: CellTiter-Glo (CTG) ATP viability assay, MCF-7; type: cell-based; conditions: for EC50: Homo sapiens
Procedure, shortened: (§1)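 Cell viability was read as ATP content by CellTiter-Glo luminescence after replacing media with reagent, shaking 20 min and resting 10 min. Signal was normalized to solvent control, and a 4-parameter Hill fit to the dose response gave EC50 and depth of response.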

[2] = test system: MCF-7 cells; experiment: cells; conditions: for Hill Slope: MCF-7, Hill fit; for EC50: Homo sapiens
Procedure, shortened: (§2)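 EC50 comes from 4-parameter Hill fits of average specific growth rate (mass accumulation) versus dose; a response is called only when the fit beats a flat line by F-test at p<0.01. Growth was tracked by differential phase contrast QPI for 24 or 72 h post-equilibration, followed by CTG ATP readout.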

[3] = test system: MDA-MB-231 cells; experiment: Quantitative phase imaging (QPI) growth response, MDA-MB-231; type: cell-based; parameters: DoR QPI: scale not given here; ToR 20 μM: unit not given here; conditions: for Max Asymptote / Min Asymptote: MDA-MB-231, 4-parameter Hill fit of mean SGR vs concentration, one line per replicate; for EC50: Homo sapiens, MDA-MB-231, MDA-MB-231 cell line
Procedure, shortened: as §2

[4] = test system: MDA-MB-231 cells; experiment: CellTiter-Glo (CTG) ATP viability assay, MDA-MB-231; type: cell-based; conditions: for Min Asymptote: MDA-MB-231, Hill fit of luminescence normalized to solvent control, one line per replicate; for EC50: Homo sapiens
Procedure, shortened: as §1

[5] = test system: BT-474 cells; experiment: CellTiter-Glo (CTG) ATP viability assay, BT-474; type: cell-based; conditions: for Min Asymptote: BT-474, Hill fit of luminescence normalized to solvent control, one line per replicate; for EC50: Homo sapiens
Procedure, shortened: as §1

[6] = 24 h QPI, MCF-7, 4-parameter Hill fit of mean SGR vs concentration, one line per replicate

Compound: CC[C@]1(O)C[C@@H]2CN(CCc3c([nH]c4ccccc34)[C@@](C(=O)OC)(c3cc4c(cc3OC)N(C)[C@H]3[C@@](O)(C(=O)OC)[C@H](OC(C)=O)[C@]5(CC)C=CCN6CC[C@]43[C@@H]65)C2)C1 [Vinblastine]
- Hill Slope ([1]; 72 h CTG, MCF-7, Hill fit): 0.2572 and 0.2217
- log10(EC50) ([1]; 72 h CTG, MCF-7, Hill fit): 2.689
- Min Asymptote ([1]; 72 h CTG, MCF-7, Hill fit of luminescence normalized to solvent control, one line per replicate): 4.32E−11 (2×) and 1.18E−11
- EC50 ([1]; MCF7, 72 h, 72 h CTG, MCF-7, Hill fit, read-out: log10(EC50) (converted)): 2.15 nM
- EC50 ([1]; MCF7, MCF-7 cell line, CellTiter-Glo, read-out: EC50, CTG (converted)): 1600 nM
- DoR CTG ([1]; MCF-7 cell line, depth of response, CellTiter-Glo): 0.8
- Max Asymptote [2, 6]: 0.01958
- Min Asymptote [2, 6]: 0.005796
- Hill Slope ([2]; 24 h QPI): 3.2016
- Min Asymptote ([2]; 72 h QPI, MCF-7, 4-parameter Hill fit of mean SGR vs concentration, one line per replicate): 0.01979 and 0.02842 and 0.02817
- Hill Slope ([2]; 72 h QPI): 0.3759 and 0.3808 and 0.4308
- EC50 ([2]; MCF7, 24 h, read-out: log10(EC50), 24 h QPI, MCF-7, Hill fit (converted), EC50 in μM per Table 1): 0.00154 µM
- EC50 ([2]; MCF7, read-out: EC50, QPI, MCF-7 cell line, QPI growth rate): 0.3 µM
- DoR QPI ([2]; MCF-7 cell line, depth of response, QPI): 0.4
- ToR 20 μM ([2]; MCF-7 cell line, time of response at 20 μM): −3.0
- Max Asymptote ([3]; 24 h QPI): 0.02419 and 0.02824 and 0.03124
- Min Asymptote ([3]; 24 h QPI): 0.0149 and 0.01503 and 0.01517
- Max Asymptote ([3]; 72 h QPI): 0.007654 and 0.0105 and 0.007938
- Min Asymptote ([3]; 72 h QPI): 0.03001 and 0.01871 and 0.03086
- EC50 ([3]; EC50 of the standard deviation, read-out: EC50, SD (converted)): 14.9 µM
- EC50 ([3]; QPI growth rate, read-out: EC50, QPI): 0.4 µM
- growth rate and heterogeneity over time ([3]; MDA-MB-231): decrease in growth rate and heterogeneity simultaneously
- growth rate and heterogeneity over time ([3]; MDA-MB-231, 0.4 μM): decrease in growth rate and heterogeneity simultaneously
- growth rate and heterogeneity over time ([3]; MDA-MB-231, 2 μM): decrease in growth rate and heterogeneity simultaneously
- growth rate and heterogeneity over time ([3]; MDA-MB-231, 20 μM): decrease in growth rate and heterogeneity simultaneously
- growth rate and heterogeneity as concentration increases ([3]; MDA-MB-231, FIG. 22): decrease in growth rate and heterogencity simultaneously
- growth rate and heterogeneity over time ([3]; MDA-MB-231, lowest concentrations, FIG. 21 G-H): growth rate decreases over time with little change in heterogeneity
- DoR QPI ([3]; MDA-MB-231 cell line, depth of response, QPI): 0.8
- ToR 20 μM ([3]; MDA-MB-231 cell line, time of response at 20 μM): 4.7
- Hill Slope ([4]; 24 h CTG, MDA-MB-231, Hill fit): 0.3445
- Min Asymptote ([4]; 24 h CTG): 0.5659
- Min Asymptote ([4]; 72 h CTG): 0.06356 and 0.2911
- EC50 ([4]; MDA-MB-231, 24 h, 24 h CTG, MDA-MB-231, Hill fit, read-out: log10(EC50) (converted)): 1830 nM
- EC50 ([4]; MDA-MB-231, MDA-MB-231 cell line, CellTiter-Glo, read-out: EC50, CTG): 3000 nM
- DoR CTG ([4]; MDA-MB-231 cell line, depth of response, CellTiter-Glo): 1.0
- Hill Slope ([5]; 24 h CTG, BT-474, Hill fit): 0.3445
- Min Asymptote ([5]; 24 h CTG): 0.5659
- Hill Slope ([5]; 72 h CTG, BT-474, Hill fit): 0.1
- Min Asymptote ([5]; 72 h CTG): 0.06356
- DoR CTG ([5]; BT-474 cell line, depth of response, CellTiter-Glo): 1.0
- EC50 ([5]; BT-474, 24 h, 24 h CTG, BT-474, Hill fit, read-out: log10(EC50) (converted)): 1830 nM
- EC50 ([5]; BT-474, 72 h, 72 h CTG, BT-474, Hill fit, read-out: log10(EC50) (converted)): 7.66 nM
- EC50 ([5]; BT-474, BT-474 cell line, CellTiter-Glo, read-out: EC50, CTG): 6400 nM
